Laboratory results published in patent US10513519B2, “Solid forms of (1S,4S)-4-(2-(((3S,4R)-3-fluorotetrahydro-2H-pyran-4-yl)amino)-8-((2,4,6-trichlorophenyl)amino)-9H-purin-9-yl)-1-methylcyclohexane-1-carboxamide and methods of their use” (Signal Pharmaceuticals, LLC, priority 2016, dated 2019).

Tested on: 64 cancer cell lines
Test: Anti-proliferative activity across a panel of 64 cancer cell lines (CellTiter-Glo)
Type: cell-based
Description: Prior to testing, cells were grown and expanded in culture flasks to provide sufficient amounts of starting material. Cells were then diluted to the appropriate densities and added directly to the compound-spotted 384-well plates. Cells were allowed to grow for 72 h at 37° C./5% CO2. At the time when compound was added (to), initial cell number was assessed via a viability assay (Cell Titer-Glo) by quantifying the level of luminescence generated by ATP present in viable cells. After 72 h, cell viability of compound-treated cells was assessed via Cell Titer-Glo and luminescence measurement. The apoptotic response to Compound 1 was assessed by quantifying the activities of caspase 3 and caspase 7 (Caspase 3/7-Glo) in treated cells and DMSO control cells.
Cells were treated with DMSO or increasing concentrations of Compound 1 for 72 h. Proliferation was measured using CellTiter-Glo as described.

[1] = HUH-6-clone5, 72 h, HuH-6-Clone5 (Liver)
[2] = HepG2/C3A, 72 h, HepG2/C3A (Liver)
[3] = Homo sapiens, A549, 72 h, A549 (Lung)
[4] = Homo sapiens, A-375, 72 h, A375 (Melanoma)
[5] = Homo sapiens, BXPC-3, 72 h, BxPC-3 (Pancreas)
[6] = Homo sapiens, CFPAC-1, 72 h, CFPAC-1 (Pancreas)
[7] = Homo sapiens, COLO 205, 72 h, Colo 205 (Colon)
[8] = Homo sapiens, HCT-116, 72 h, HCT-116 (Colon)
[9] = Homo sapiens, HOP-62, 72 h, HOP62 (Lung)
[10] = Homo sapiens, HOP-92, 72 h, HOP92 (Lung)
[11] = Homo sapiens, HT-29, 72 h, HT29 (Colon)
[12] = Homo sapiens, HT-29, 72 h, HT29/219 (Colon)
[13] = Homo sapiens, Hep3B, 72 h, Hep3B (Liver)
[14] = Homo sapiens, HepG2, 72 h, HepG2 (Liver)
[15] = Homo sapiens, HuCCT-1, 72 h, HuCCT1 (Liver)
[16] = Homo sapiens, HuH-1, 72 h, HuH-1 (Liver)
[17] = Homo sapiens, Huh-7, 72 h, HuH-7 (Liver)
[18] = Homo sapiens, K562, 72 h, K-562 (Leukemia)
[19] = Homo sapiens, KATO III, 72 h, KATOIII, Stomach
[20] = Homo sapiens, LOX IMVI, 72 h, LOX-IMVI (Melanoma)
[21] = Homo sapiens, LoVo, 72 h, LOVO (Colon)
[22] = Homo sapiens, MDA-MB-231, 72 h, MDA-MB-231 (Breast)
[23] = Homo sapiens, Malme-3M, 72 h, MALME-3M (Melanoma)
[24] = Homo sapiens, NCI-H23, 72 h, NCI-H23 (Lung)
[25] = Homo sapiens, NCI-H28, 72 h, NCI-H28 (Lung)
[26] = Homo sapiens, NCI-H226, 72 h, NCI-H226 (Lung)
[27] = Homo sapiens, NCI-H441, 72 h, NCI-H441 (Lung)
[28] = Homo sapiens, NCI-H460, 72 h, NCI-H460 (Lung)
[29] = Homo sapiens, NCI-H520, 72 h, NCI-H520 (Lung)
[30] = Homo sapiens, NCI-H838, 72 h, NCI-H838 (Lung)
[31] = Homo sapiens, NCI-H1299, 72 h, NCI-H1299 (Lung)
[32] = Homo sapiens, NCI-H1703, 72 h, NCI-H1703 (Lung)
[33] = Homo sapiens, NCI-H1755, 72 h, NCI-H1755 (Lung)
[34] = Homo sapiens, NCI-H1975, 72 h, NCI-H1975 (Lung)
[35] = Homo sapiens, NCI-H2122, 72 h, NCI-H2122 (Lung)
[36] = Homo sapiens, PANC-1, 72 h, PANC-1 (Pancreas)
[37] = Homo sapiens, PLC-PRF-5, 72 h, PLC-PRF-5 (Liver)
[38] = Homo sapiens, RPMI-8226, 72 h, RPMI-8226 (Multiple myeloma)
[39] = Homo sapiens, SK-HEP1, 72 h, SK-HEP-1 (Liver)
[40] = Homo sapiens, SNU-182, 72 h, SNU-182 (Liver)
[41] = Homo sapiens, SNU-387, 72 h, SNU-387 (Liver)
[42] = Homo sapiens, SNU-398, 72 h, SNU-398 (Liver)
[43] = Homo sapiens, SNU-423, 72 h, SNU-423 (Liver)
[44] = Homo sapiens, SNU-449, 72 h, SNU-449 (Liver)
[45] = Homo sapiens, SNU-475, 72 h, SNU-475 (Liver)
[46] = Homo sapiens, SW48, 72 h, SW48 (Colon)
[47] = Homo sapiens, SW900, 72 h, SW900 (Lung)
[48] = Homo sapiens, SW1417, 72 h, SW1417 (Colon)
[49] = Homo sapiens, SW-620, 72 h, SW620 (Colon)
[50] = Mel202, 72 h, MEL-202 (Melanoma)

In the case of `C[C@]1(C(N)=O)CC[C@@H](n2c(Nc3c(Cl)cc(Cl)cc3Cl)nc3cnc(N[C@@H]4CCOC[C@H]4F)nc32)CC1` [Compound 1, cis-4-[2-{[(3S,4R)-3-fluorooxan-4-yl]amino}-8-(2,4,6-trichloroanilino)-9H-purin-9-yl]-1-methylcyclohexane-1-carboxamide], the GI50 (72 h, 92-1 (Melanoma)) is reported as 10.2 nM, the IC50 (72 h, 92-1 (Melanoma)) is reported as 31.6 nM and the GI50 (72 h, AGS, Stomach) is reported as 23 nM. The IC50 (72 h, AGS, Stomach) was 28 nM, the GI50 (72 h, FOCUS (Liver)) was 1500 nM and the IC50 (72 h, FOCUS (Liver)) was 4300 nM. It also gave a GI50 (72 h, HLE (Liver)) of 4850 nM, an IC50 (72 h, HLE (Liver)) of 9620 nM and a GI50 (72 h, HLF (Liver)) of 6680 nM. It also gave an IC50 (72 h, HLF (Liver)) of 7390 nM, a GI50 (72 h, JHH-5 (Liver)) of 4.5 nM and an IC50 (72 h, JHH-5 (Liver)) of 7 nM. The GI50 (72 h, JHH-6 (Liver)) was 10000 nM, the IC50 (72 h, JHH-6 (Liver)) was 10000 nM and the GI50 (72 h, PC-9 (Lung)) was 217 nM. For the same compound, the IC50 (72 h, PC-9 (Lung)) was 379 nM, the “proliferation of multiple cancer cell lines” value (72 h, CRC, melanoma, gastric cancer, HCC, lung cancer, pancreatic cancer, leukemia, multiple myeloma) was “inhibit the proliferation” and the GI50 [1] was 29.1 nM. It also gave an IC50 [1] of 1220 nM, a GI50 [2] of 4620 nM and an IC50 [2] of 10000 nM. The GI50 [3] was 40.2 nM, the IC50 [3] was 82.2 nM and the GI50 [4] was 21 nM. For the same compound, the IC50 [4] was 24 nM, the GI50 [5] was 36.8 nM and the IC50 [5] was 70.8 nM. For the same compound, the GI50 [6] was 1950 nM, the IC50 [6] was 7400 nM and the GI50 [7] was 25 nM. The IC50 [7] was 40 nM, the GI50 [8] was 17 nM and the IC50 [8] was 22 nM. It also gave a GI50 [9] of 339 nM, an IC50 [9] of 3490 nM and a GI50 [10] of 108 nM. For the same compound, the IC50 [10] was 117 nM, the GI50 [11] was 16 nM and the IC50 [11] was 25 nM. For the same compound, the GI50 [12] was 1.7 nM, the IC50 [12] was 4.5 nM and the GI50 [13] was 5.3 nM. The IC50 [13] was 14.7 nM, the GI50 [14] was 34.6 nM and the IC50 [14] was 1240 nM. For the same compound, the GI50 [15] was 25.3 nM, the IC50 [15] was 1300 nM and the GI50 [16] was 235 nM. For the same compound, the IC50 [16] was 7260 nM, the GI50 [17] was 21.2 nM and the IC50 [17] was 489 nM. For the same compound, the GI50 [18] was 5420 nM, the IC50 [18] was 6030 nM and the GI50 [19] was 7050 nM. It also gave an IC50 [19] of 8020 nM, a GI50 [20] of 22 nM and an IC50 [20] of 25 nM. It also gave a GI50 [21] of 63 nM, an IC50 [21] of 126 nM and a GI50 [22] of 35.3 nM. For the same compound, the IC50 [22] was 3330 nM, the GI50 (Homo sapiens, MIA PaCa-2, 72 h, MiaPaCa-2 (Pancreas)) was 47 nM and the GI50 [23] was 1.1 nM. The IC50 [23] was 3.8 nM, the GI50 [24] was 36.4 nM and the IC50 [24] was 182 nM. It also gave a GI50 [25] of 1280 nM, an IC50 [25] of 2360 nM and a GI50 [26] of 1630 nM. The IC50 [26] was 6150 nM, the GI50 [27] was 184 nM and the IC50 [27] was 6350 nM. The GI50 [28] was 244 nM, the IC50 [28] was 644 nM and the GI50 [29] was 5240 nM. The IC50 [29] was 8370 nM, the GI50 [30] was 567 nM and the IC50 [30] was 9180 nM. The GI50 [31] was 234 nM, the IC50 [31] was 498 nM and the GI50 [32] was 1350 nM. It also gave an IC50 [32] of 1680 nM, a GI50 [33] of 40.4 nM and an IC50 [33] of 58.4 nM. It also gave a GI50 [34] of 2050 nM, an IC50 [34] of 3190 nM and a GI50 [35] of 31.8 nM. The IC50 [35] was 42.7 nM, the GI50 [36] was 5440 nM and the IC50 [36] was 10000 nM. For the same compound, the GI50 [37] was 888 nM, the IC50 [37] was 4010 nM and the GI50 [38] was 3240 nM. It also gave an IC50 [38] of 9740 nM, a GI50 [39] of 7040 nM and an IC50 [39] of 10000 nM. It also gave a GI50 [40] of 76.4 nM, an IC50 [40] of 4980 nM and a GI50 [41] of 33.2 nM. It also gave an IC50 [41] of 104 nM, a GI50 [42] of 265 nM and an IC50 [42] of 1970 nM. It also gave a GI50 [43] of 6240 nM, an IC50 [43] of 10000 nM and a GI50 [44] of 10000 nM. The IC50 [44] was 10000 nM, the GI50 [45] was 9990 nM and the IC50 [45] was 10000 nM. The GI50 [46] was 5.7 nM, the IC50 [46] was 88 nM and the GI50 [47] was 4.8 nM. The IC50 [47] was 21.7 nM, the GI50 [48] was 0.5 nM and the IC50 [48] was 16.9 nM. The GI50 [49] was 47 nM, the IC50 [49] was 92 nM and the GI50 (JHH1, 72 h, JHH-1 (Liver)) was 1.6 nM. It also gave an IC50 (JHH1, 72 h, JHH-1 (Liver)) of 94.6 nM, a GI50 (JHH7, 72 h, JHH-7 (Liver)) of 83.4 nM and an IC50 (JHH7, 72 h, JHH-7 (Liver)) of 548 nM. The GI50 (JHH-2, 72 h, JHH-2 (Liver)) was 129 nM, the IC50 (JHH-2, 72 h, JHH-2 (Liver)) was 4480 nM and the GI50 (JHH-4, 72 h, JHH-4 (Liver)) was 363 nM. The IC50 (JHH-4, 72 h, JHH-4 (Liver)) was 2320 nM, the GI50 [50] was 38.5 nM and the IC50 [50] was 96.8 nM.
